Test results as given in ChEMBL document CHEMBL1201862, “PubChem BioAssay data set” (2004).
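Tested at 5 concentrations; 48 h exposure; 96-well plates; endpoints linearly interpolated, else capped at highest concentration. GI50 marks 50% less growth.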 Calls of active or inactive are those of the source. No stated cut-off is given here; in the data, active = GI50 up to about 1.1 µM and inactive = higher.

Experiments:
Assay in all cases: NCI tumour cell line growth inhibition, 48 h
NCI-H23 = system: NCI-H23
HCC 2998 = system: HCC 2998
COLO 205 = system: COLO 205
U-251 = system: U-251
SR = system: SR
UACC-62 = system: UACC-62
786-0 = system: 786-0
NCI-H522 = system: NCI-H522
HOP-62 = system: HOP-62
DU-145 = system: DU-145
RPMI-8226 = system: RPMI-8226
Hs-578T = system: Hs-578T
SK-MEL-5 = system: SK-MEL-5
EKVX = system: EKVX
UO-31 = system: UO-31
OVCAR-3 = system: OVCAR-3
OVCAR-8 = system: OVCAR-8
NCI/ADR-RES = system: NCI/ADR-RES
M14 = system: M14
IGROV-1 = system: IGROV-1
MDA-MB-435 = system: MDA-MB-435
Malme-3M = system: Malme-3M
SN12C = system: SN12C
TK-10 = system: TK-10
KM12 = system: KM12
BT-549 = system: BT-549
CCRF-CEM = system: CCRF-CEM
LOX IMVI = system: LOX IMVI
SF-268 = system: SF-268
MDA-N = system: MDA-N
K562 = system: K562
ACHN = system: ACHN
T47D = system: T47D
MDA-MB-231 = system: MDA-MB-231
RXF 393 = system: RXF 393
SK-OV-3 = system: SK-OV-3
MOLT-4 = system: MOLT-4
MCF7 = system: MCF7
HT-29 = system: HT-29
SNB-75 = system: SNB-75
A549 = system: A549
HL-60 = system: HL-60
A498 = system: A498
HOP-92 = system: HOP-92
HCT-15 = system: HCT-15
HCT-116 = system: HCT-116
SK-MEL-28 = system: SK-MEL-28
CAKI-1 = system: CAKI-1
SF-295 = system: SF-295
NCI-H226 = system: NCI-H226
UACC-257 = system: UACC-257
OVCAR-4 = system: OVCAR-4
OVCAR-5 = system: OVCAR-5
SK-MEL-2 = system: SK-MEL-2
PC-3 = system: PC-3
SW-620 = system: SW-620
SNB-19 = system: SNB-19
NCI-H460 = system: NCI-H460
SF-539 = system: SF-539

Compound: N=C(N)Nc1ccc(CC(N)NCC(=O)O)cc1 (centres undefined)
- GI50 (NCI-H23): > 25 µM (inactive)
- GI50 (HCC 2998): > 25 µM (inactive)
- GI50 (COLO 205): > 25 µM (inactive)
- GI50 (U-251): > 25 µM (inactive)
- GI50 (SR): 20 µM (inactive)
- GI50 (UACC-62): > 25 µM (inactive)
- GI50 (786-0): > 25 µM (inactive)
- GI50 (NCI-H522): > 25 µM (inactive)
- GI50 (HOP-62): > 25 µM (inactive)
- GI50 (DU-145): > 25 µM (inactive)
- GI50 (RPMI-8226): > 25 µM (inactive)
- GI50 (Hs-578T): > 25 µM (inactive)
- GI50 (SK-MEL-5): > 25 µM (inactive)
- GI50 (EKVX): > 25 µM (inactive)
- GI50 (UO-31): > 25 µM (inactive)
- GI50 (OVCAR-3): > 25 µM (inactive)
- GI50 (OVCAR-8): > 25 µM (inactive)
- GI50 (NCI/ADR-RES): > 25 µM (inactive)
- GI50 (M14): > 25 µM (inactive)
- GI50 (IGROV-1): > 25 µM (inactive)
- GI50 (MDA-MB-435): > 25 µM (inactive)
- GI50 (Malme-3M): > 25 µM (inactive)
- GI50 (SN12C): > 25 µM (inactive)
- GI50 (TK-10): > 25 µM (inactive)
- GI50 (KM12): > 25 µM (inactive)
- GI50 (BT-549): > 25 µM (inactive)
- GI50 (CCRF-CEM): > 25 µM (inactive)
- GI50 (LOX IMVI): > 25 µM (inactive)
- GI50 (SF-268): > 25 µM (inactive)
- GI50 (MDA-N): > 25 µM (inactive)
- GI50 (K562): > 25 µM (inactive)
- GI50 (ACHN): > 25 µM (inactive)
- GI50 (T47D): > 25 µM (inactive)
- GI50 (MDA-MB-231): > 25 µM (inactive)
- GI50 (RXF 393): > 25 µM (inactive)
- GI50 (SK-OV-3): > 25 µM (inactive)
- GI50 (MOLT-4): > 25 µM (inactive)
- GI50 (MCF7): > 25 µM (inactive)
- GI50 (HT-29): > 25 µM (inactive)
- GI50 (SNB-75): > 25 µM (inactive)
- GI50 (A549): > 25 µM (inactive)
- GI50 (HL-60): > 25 µM (inactive)
- GI50 (A498): > 25 µM (inactive)
- GI50 (HOP-92): > 25 µM (inactive)
- GI50 (HCT-15): > 25 µM
- GI50 (HCT-116): > 25 µM (inactive)
- GI50 (SK-MEL-28): > 25 µM (inactive)
- GI50 (CAKI-1): > 25 µM (inactive)
- GI50 (SF-295): > 25 µM (inactive)
- GI50 (NCI-H226): > 25 µM (inactive)
- GI50 (UACC-257): > 25 µM (inactive)
- GI50 (OVCAR-4): > 25 µM (inactive)
- GI50 (OVCAR-5): > 25 µM (inactive)
- GI50 (SK-MEL-2): > 25 µM (inactive)
- GI50 (PC-3): > 25 µM (inactive)
- GI50 (SW-620): > 25 µM (inactive)

Compound: O=C1C(Cl)=C(N2CCN(c3ccccn3)CC2)C(=O)c2c(O)ccc(O)c21
- GI50 (NCI-H23): 1.18 µM (inactive)
- GI50 (HCC 2998): 2.51 µM (inactive)
- GI50 (COLO 205): 1.43 µM (inactive)
- GI50 (U-251): 8.49 µM (inactive)
- GI50 (SR): 0.881 µM (active)
- GI50 (UACC-62): 0.752 µM (active)
- GI50 (786-0): 1.25 µM (inactive)
- GI50 (NCI-H522): 1.74 µM (inactive)
- GI50 (HOP-62): 4.67 µM (inactive)
- GI50 (DU-145): 3.66 µM (inactive)
- GI50 (RPMI-8226): 0.394 µM (active)
- GI50 (Hs-578T): 1.84 µM (inactive)
- GI50 (SK-MEL-5): 1.42 µM (inactive)
- GI50 (EKVX): 4.27 µM (inactive)
- GI50 (UO-31): 1.87 µM (inactive)
- GI50 (OVCAR-3): 1.95 µM (inactive)
- GI50 (OVCAR-8): 2.12 µM (inactive)
- GI50 (NCI/ADR-RES): 2.38 µM (inactive)
- GI50 (SNB-19): 5.92 µM (inactive)
- GI50 (M14): 1.46 µM (inactive)
- GI50 (IGROV-1): 1.63 µM (inactive)
- GI50 (MDA-MB-435): 4.97 µM (inactive)
- GI50 (Malme-3M): 1.65 µM (inactive)
- GI50 (SN12C): 1.88 µM (inactive)
- GI50 (TK-10): 2.29 µM (inactive)
- GI50 (KM12): 3.1 µM (inactive)
- GI50 (BT-549): 1.9 µM (inactive)
- GI50 (CCRF-CEM): 0.37 µM (active)
- GI50 (LOX IMVI): 0.157 µM (active)
- GI50 (SF-268): 2.59 µM (inactive)
- GI50 (MDA-N): 1.21 µM (inactive)
- GI50 (K562): 0.512 µM (active)
- GI50 (NCI-H460): 3.07 µM (inactive)
- GI50 (ACHN): 2.42 µM (inactive)
- GI50 (T47D): 1.3 µM (inactive)
- GI50 (MDA-MB-231): 1.74 µM (inactive)
- GI50 (RXF 393): 1.74 µM (inactive)
- GI50 (SK-OV-3): 8.32 µM (inactive)
- GI50 (MOLT-4): 0.456 µM (active)
- GI50 (MCF7): 1.42 µM (inactive)
- GI50 (HT-29): 1.28 µM (inactive)
- GI50 (SNB-75): 1.89 µM (inactive)
- GI50 (A549): 6.49 µM (inactive)
- GI50 (HL-60): 0.128 µM (active)
- GI50 (A498): 4.25 µM (inactive)
- GI50 (HOP-92): 1.21 µM (inactive)
- GI50 (HCT-15): 1.12 µM
- GI50 (HCT-116): 1.7 µM (inactive)
- GI50 (SK-MEL-28): 1.9 µM (inactive)
- GI50 (CAKI-1): 2.08 µM (inactive)
- GI50 (SF-539): 1.79 µM (inactive)
- GI50 (SF-295): 3.78 µM (inactive)
- GI50 (NCI-H226): 4.69 µM (inactive)
- GI50 (UACC-257): 1.84 µM (inactive)
- GI50 (OVCAR-4): 1.59 µM (inactive)
- GI50 (OVCAR-5): 6.08 µM (inactive)
- GI50 (PC-3): 1.94 µM (inactive)
- GI50 (SW-620): 0.665 µM (active)
